The test system of data set [1] is DHCR7−/− mouse embryonic fibroblasts. As to the kind of experiment: Nile red staining of ER neutral lipids in DHCR7−/− MEFs. In kind it is cell-based. The arrangement: dose or concentration left out as unconfirmed. The note with it: 5 days. The method, then:
DHCR7−/− mouse embryonic fibroblasts were grown under the conditions indicated in FIG. 9 (FCS=foetal calf serum, LPDS=lipoprotein deficient serum) for 5 days prior to staining of neutral lipids with Nile red. Under wild-type conditions (growth in FCS) Nile red stains the endoplasmic reticulum (ER) as expected. Inducing DHCR7−/− cells into a Smith-Lemli-Opitz phenotype by growth in LPDS leads to a depletion in ER neutral lipids and an elevation in punctate staining indicative of a block in transport to the ER. […] N=2.

For data set [2], the system named is NPC1 null (CT43) CHO cells. As to the kind of experiment: Total GSL level (HPLC) in NPC1 null CHO cells. In kind it is cell-based. The note with it: 50 μM NB-DGJ, 5 days, FIG. 3A. The text has this:
(§1) It has been shown that Niemann-Pick C1 cells (NPC1 null CHO cells) and normal cells treated with amphiphiles to induce an NPC1 phenotype, in addition to free cholesterol storage, have glycosphingolipid (GSL) storage (FIG. 3A) and abnormalities in endocytic transport (FIG. 3B) including defective early to late endosomal transport and late endosomal to Golgi transport (J Biol Chem 2004; 279(25):26167-75). NPC1 cells have a 2-fold increase in total GSLs (HPLC quantified) compared to controls (FIG. 3A). […] This correction in GSL levels is associated with a correction in endocytic transport defects (J Biol Chem 2004; 279(25):26167-75). Fluorescently labelled lactosylceramide (BODIPY-LacCer), a GSL normally transported through the endocytic system to the Golgi (FIG. 3Bi), is misdirected to the LE/Lys system in untreated NPC1 cells (FIG. 3Bii), indicative of GSL storage (J Biol Chem 2004; 279(25):26167-75; J Biol Chem 2003; 278(23):20961-70; Am J Hum Genet 2001; 68(6):1361-72).

For data set [3] the following is noted: cited from earlier work.
Data set [4] relates to total ganglioside and GM1 content in cerebrum-brainstem. The settings on record: cited from earlier work.
The conditions of data set [5]: cited from earlier work. This is another data set of the same source.
A further data set has as its system NPC1 cells. The settings on record: depletion of stored GSLs with NB-DGJ; cited from earlier work.
The subject of a further data set is GSL biosynthesis. The note with it: cited from earlier work.
In data set [6] the test system is NPC1 null (CT43) CHO cells. As to the kind of experiment: BODIPY-LacCer pulse/chase endocytic transport in NPC1 null CHO cells. In kind it is cell-based. The note with it: 50 μM NB-DGJ, 5 days, 45 min pulse, 1 h chase, FIG. 3B.
Description: as §1

The next data set deals with SLOS (DHCR7−/−) MEFs. Format: cell-based, murine. The settings on record: 50 μM NB-DGJ, 5 days, medium with LPDS.

Molecules are shown by their SMILES. “Also recorded” adds a separate entry of the source.

As for `CCCCN1C[C@H](O)[C@@H](O)[C@@H](O)[C@H]1CO` [NB-DGJ, N-butyldeoxygalactonojirimycin], the “ER neutral lipid levels (Nile red)” value in data set [1] is “restoration of normal levels of neutral lipids at the ER”. Also, in [2], the GSL storage entry is listed as “reduction in GSL storage”. Besides, in data set [3] (adult mice), the neurological side effects result was “not to cause neurological side effects”. Moreover, in data set [3] (mouse, in vivo), the CNS penetration result is recorded as “penetrate the CNS” and the “effects on behaviour or CNS development” value was “without significant effects on behaviour or CNS development”. Moreover, the “total ganglioside and GM1 content” value in [4] is given as “marked reduction”. The tolerability entry in data set [5] (mouse models of GSL storage diseases) is reported as “very well tolerated”. Moreover, in data set [5] (mouse, in vivo), the “side effect activities relative to NB-DNJ” value is recorded as “lacks certain side effect activities associated with NB-DNJ”. The HRP uptake result with NPC1 cells was “correction in HRP uptake”. Moreover, the “inhibition of GSL biosynthesis relative to NB-DNJ” value with GSL biosynthesis is listed as “comparably to NB-DNJ”. Also, in data set [6], the BODIPY-LacCer endocytic transport result is listed as “correction in abnormal BODIPY-LacCer endocytic transport; also recorded: correction in BODIPY-LacCer transport to the Golgi”. For the same compound, the “endogenous ganglioside GM1 / GSL trafficking from LE/Lys to Golgi” value with SLOS (DHCR7−/−) MEFs is “corrected altered endogenous ganglioside GM1 trafficking”.

(Values after patent US8557844B2, “Substrate reduction therapy” (The Chancellor, Masters and Scholars of the University of …, priority 2007, dated 2013).)
